Read-outs that look alike come from different tables or passages of the source. Where no end group is shown, it is not given here.
Legend:
[1] = test system: erythrocytes (blood derived from SD rat); experiment: Hemolysis test; type: cell-based
Description: 3 ml of 0.9% sodium chloride solution was added into three tubes separately, followed by addition of 100 μl blood derived from SD rat (provided by Shanghai Laboratory Animal Center, Chinese Academic Sciences) respectively.
As a negative control, the naturally occurring Magainin peptide (obtained from Sigma) was dissolved in sterile water, and the Magainin peptide solution with a concentration of 1 mg/ml was prepared. 300 μl, 1.5 ml and 3 ml of such solution were added into three tubes respectively. After incubation at room temperature for 30 minutes, centrifugation was conducted at 3000 rpm, and supernates in three tubes was taken to determine the optical density at 590 nm with a spectrophotometer.
In the testing group, Hemolysis effect of the Magainin (Leu21, Ser23, Arg24) was examined. Magainin (Leu21, Ser23, Arg24) peptide was dissolved in sterile water to prepare the solution with a concentration of 1 mg/ml, 300 μl, 1.5 ml and 3 m of the solution were added into three tubes respectively, and the hemolysis test was conducted using the same method as applied to the negative control group.
In the positive control group, 0.1% of Triton X-100 (obtained from Sigma Aldrich) was employed aid the hemolysis test was performed according to the steps prescribed above.
In this test, erythrocyte will be precipitated after centrifigation and supernate appear red in the circumstance hemolysis has occurred.

Escherichia coli JM103 = type: cell-based
Description: The anti-microbial effect of the Magainin(Leu21, Ser23, Arg24) was conducted according to the following procedures, with the comparison of that of the naturally occurring Magainin.
The bacterial strain of Escherichia coli JM103 and staphylococcus aureus were employed.
The bacteria were cultivated at 37° centigrade, and diluted to 1×10^6 bacteria/ml. 20 mM of the sterilized Tris-HCl buffer (pH6.5) was added. Then the Magainin derivative and the naturally occurring Magainin II with various concentrations were added respectively, and incubated at 37° centigrade for different time, 50 μl of the cultures was taken and spread on an agar plate, and incubated at 37° centigrade overnight. The remaining bacteria colonies were accounted for, and the percent of the killed bacteria was calculated.
The ant-microbial effects of Magainin (Leu21, Ser23, Arg24) were tested with comparison with that of the naturally occurring Magainin II. […] The anti-microbial effect of Magainin (Leu21, Ser23, Arg24) on Staphylococcus aureus can be seen from table 4, and the result of time-kill study of Magainin (Leu21, Ser23, Arg24) was shown in FIG. 1.

mice of Kun-ming species = experiment: Acute toxicity test; type: in vivo; conditions: one week observation; for Livability: mice
Description: Six mice of Kun-ming species were divided into three groups randomly. Mice in the first group were intraperitoneally injected with 100 μg Magainin (Leu21, Ser23, Arg24) which is prepared by the method described in example 1, Mice in the second group were injected with 200 μg Magainin (Leu21, Ser23, Arg24), while those in the third group were injected with 1000 μg Magainin (Leu21, Ser23, Arg24). The toxicity of Magainin (Leu21, Ser23, Arg24) was determined by observing the influence of injection to the survival of the mice.

Row | Substance | Hemolysis % ([1]; 0.1%, positive control) [%] | Hemolysis % ([1]; 100 μg/ml, 30 minutes room temperature) [%] | Hemolysis % ([1]; 500 μg/ml, 30 minutes room temperature) [%] | Hemolysis % ([1]; 1000 μg/ml, 30 minutes room temperature) [%] | Bacteria killed % (Escherichia coli JM103; 10 μg/ml, 3 hr) [%] | Bacteria killed % (Escherichia coli JM103; 10 μg/ml, 4 hr) [%] | Bacteria killed % (Escherichia coli JM103; 20 μg/ml, 3 hr) [%] | Bacteria killed % (Escherichia coli JM103; 20 μg/ml, 4 hr) [%] | Livability (mice of Kun-ming species; 100 μg intraperitoneal injection) [%] | Livability (mice of Kun-ming species; 200 μg intraperitoneal injection) [%] | Livability (mice of Kun-ming species; 1000 μg intraperitoneal injection) [%] | survival of the mice (in words) (mice of Kun-ming species; 100, 200 and 1000 μg intraperitoneal)
1 | Triton X-100 [Tritonx-100] | 100 | – | – | – | – | – | – | – | – | – | – | –
2 | GIGKFLHSAKKFGKAFVGEIMNS [Naturally occurring Magainin, Magainin II] | – | 0 | 0 | 1.9 | 75.4 | 84.9 | 97.5 | 99.2 | – | – | – | –
3 | GIGKFLHSAKKFGKAFVGEILNSR [Magainin (Leu21, Ser23, Arg24)] | – | – | – | – | 71.3 | 44.2 | 97.8 | 99.1 | 100 | 100 | 100 | all survived
